# According to patent US11612165B2, “Pesticide composition for controlling Spodoptera frugiperda” (priority 2020, dated 2023):
# Where two headings read alike, the source gives them in different places.
# Tested on: Spodoptera frugiperda
# Experiment: Indoor toxicity test, immersion method, larvae mortality after 24 h
# Format: in vivo
# Details: single or mixed in different ratios, 3-day-old larvae, 25° C., read-out: LC50 (95% confidence limit)
# Source text: Pesticide for test: TC of tea saponin; TC of chlorantraniliprole; TC of tolfenpyrad;
# Pest for test: Spodoptera frugiperda (2-3-day-old);
# Test method: immersion method: calculating the dosage of the TC according to the active ingredients, preparing the TC into a mother solution, adding clear water to dilute the mother solution to 5-7 gradient concentrations, taking clear water treatment as a control, and setting 3 repetitions for each treatment; selecting 20 larvae with basically the same growth state, putting the larvae into an experiment barrel containing pesticide liquid, covering a gauze (to prevent escape), placing in a 25° C. incubator, investing the death situations after 24 h, recording the number of the dead larvae, and processing data by DPS statistical software.
SMILES,LC50 (tolfenpyrad (A) and tea saponin (B)),LC50 (chlorantraniliprole (A) and tea saponin (B))
"CCc1nn(C)c(C(=O)NCc2ccc(Oc3ccc(C)cc3)cc2)c1Cl [Tolfenpyrad (A), Tolfenpyrad]",0.563 µg/mL,
"CNC(=O)c1cc(Cl)cc(C)c1NC(=O)c1cc(Br)nn1-c1ncccc1Cl [Chlorantraniliprole (A), Chlorantraniliprole]",,0.283 µg/mL
